Where “and” joins values, the source holds several entries; their conditions need not be identical. Identical values can stand only once.
Key:
[1] = for mass density / viscosity: 101.33 kPa, Liquid; for mass density: Pycnometric method; for Normal melting temperature: Crystal, DTA; for viscosity: Cone and plate viscometry
[2] = molar heat capacity at constant pressure; settings: 101.33 kPa, Liquid, Small sample (50 mg) DSC

Cn1cc[n+](CC(CBr)N=[N+]=[N-])c1.[Br-] (stereo not given) [1-(2-azido-3-bromopropyl)-3-methyl-3H-imidazol-1-ium bromide]
Settings | mass density [kg/m3]
[1], 298 K | 1360

Settings | Normal melting temperature [°C]
[1] | 10

Cn1cc[n+](CC(Br)CN=[N+]=[N-])c1.N#C[N-]C#N (stereo not given)
Settings | mass density [kg/m3]
[1], 298 K | 1280

Settings | Normal melting temperature [°C]
[1] | 6

C=Cn1cc[n+](CC(C[n+]2ccn(C)c2)N=[N+]=[N-])c1.N#C[N-]C#N.N#C[N-]C#N (stereo not given)
Settings | mass density [kg/m3] | molar heat capacity at constant pressure [J/K/mol] | viscosity [mPa·s]
[1], 298 K | 1490 | – | 83.9
[1], 298.9 K | – | – | 66.3
[1], 300 K | – | – | 58.4
[1], 300.9 K | – | – | 53
[1], 303 K | – | – | 45.8
[1], 307.9 K | – | – | 35.6
[1], 312.9 K | – | – | 29.9
[1], 317.9 K | – | – | 26.2
[1], 322.9 K | – | – | 23.4
[1], 327.9 K | – | – | 20.8
[1], 332.9 K | – | – | 18.7
[1], 337.9 K | – | – | 17.1
[1], 342.9 K | – | – | 16.4
[1], 347.9 K | – | – | 15.8
[1], 353 K | – | – | 15.2
[1], 357.9 K | – | – | 14.6
[1], 362.9 K | – | – | 14
[2], 298 K | – | 400 | –
[2], 303 K | – | 409.7 | –
[2], 323 K | – | 452 | –

Settings | Normal melting temperature [°C]
[1] | 19

Cn1cc[n+](CC(CBr)N=[N+]=[N-])c1.N#C[N-]C#N (stereo not given)
[1]
Settings | mass density [kg/m3] | viscosity
298 K | 1310 | 57.01 mPa·s and 56.9 mPa·s
299 K | – | 53.28 mPa·s
300 K | – | 49.6 mPa·s and 49.44 mPa·s
301 K | – | 46.03 mPa·s
302 K | – | 42 mPa·s and 42.05 mPa·s
303.1 K | – | 38.84 mPa·s
304 K | – | 35.9 mPa·s and 35.89 mPa·s
306 K | – | 30.94 mPa·s
306.1 K | – | 30.9 mPa·s
307.9 K | – | 26.97 mPa·s and 26.9 mPa·s and 26.98 mPa·s
309.8 K | – | 23.3 mPa·s
313.9 K | – | 17.9 mPa·s
317.9 K | – | 13.9 mPa·s
322 K | – | 10.8 mPa·s
325.9 K | – | 8.8 mPa·s
331.8 K | – | 5.9 mPa·s
336 K | – | 4.8 mPa·s
339.9 K | – | 4.1 mPa·s
344 K | – | 3.5 mPa·s
347.9 K | – | 3.1 mPa·s
353 K | – | 2.5 mPa·s
357.9 K | – | 2.2 mPa·s
361.9 K | – | 2 mPa·s

Settings | Normal melting temperature [°C]
[1] | -2

Cn1cc[n+](CC(Br)CN=[N+]=[N-])c1.[Br-] (stereo not given) [1-(3-azido-2-bromopropyl)-3-methyl-3H-imidazol-1-ium bromide]
Settings | mass density [kg/m3]
[1], 298 K | 1340

Settings | Normal melting temperature [°C]
[1] | 17

C=Cn1cc[n+](CC(C[n+]2ccn(C)c2)N=[N+]=[N-])c1.[Br-].[Br-] (stereo not given)
Settings | mass density [kg/m3]
[1], 298 K | 1560

Settings | Normal melting temperature [°C]
[1] | 23

— the NIST ThermoML archive (doi:10.1016/j.tca.2015.08.032)
